From patent US20240139220A1, “TREATMENT OF HPV INFECTION” (priority 2022, published 2024)

How the values were obtained:
Assay type in all cases: physicochemical
[1] = Solubility in buffers, water and simulated vaginal fluid at 37° C.
Procedure: About 4 mg of Compound I Pattern 1 was added into 2 mL of buffer solution.
(§1) Solubility was tested in five media, pH 3.0 citrate buffer, pH 4.5 acetate buffer, pH 6.8 phosphate buffer, water, simulated vaginal fluid (pH 4.2) at 37° C. for 0.5 h and 2 h.
The salt amount used is equivalent to 10 mg anhydrous free base. […] The obtained clear solutions were analyzed by pH meter for pH, and solubility was determined by observation.
as §1

[2] = Hygroscicity by Dynamic Vapor Sorption (DVS) at 25° C.; settings: for XRPD after DVS test: 25° C.
Procedure: Hygroscopicity was investigated by DVS at 25° C., using the following method: […]

[3] = Bulk stability, accelerated storage for one week (HPLC, XRPD); settings: for Bulk (XRPD) / Color / Purity, Bulk (HPLC): 1 week
Procedure: Bulk stability: Accelerated stability experiments were conducted at 25° C./92% RH and 40° C./75% RH in an open container, 60° C. in a tight container for one week.
Samples were characterized by XRPD and HPLC and inspected for color change.
Accelerated stability experiments were conducted at 25° C./92% RH in an open container, at 40° C./75% RH in an open container, and at 60° C. in a tight container for one week.

[4] = Polymorph screening by equilibration in solvents at 25° C. (XRPD)
[5] = ES1: pH 3.0, 100 mM citrate buffer
[6] = ES2: pH 4.5, 50 mM acetate buffer
[7] = ES3: pH 6.8, 50 mM phosphate buffer
[8] = ES5: Simulated vaginal fluid (pH adjusted by 0.1N NaOH)
[9] = BS1: solid state, 25° C./92% RH, open container
[10] = BS2: solid state, 40° C./75% RH, open container
[11] = BS3: solid state, 60° C., tight container

## CCOC(=O)C(C)NP(=O)(COCCn1cnc2c(OC)nc(N)nc21)OCc1ccccc1.O=C(O)C=CC(=O)O (stereo not shown) [Compound III Pattern 2]
[1]; [5]
  Solubility 0.5 hours: >2000 µg/mL
  Solubility 2 hours: > 2000 µg/mL
  pH of solution, 2 hours: 2.83
[1]; [6]
  Solubility 0.5 hours: >2000 µg/mL
  Solubility 2 hours: > 2000 µg/mL
  pH of solution, 2 hours: 4.12
[1]; [7]
  Solubility 0.5 hours: >2000 µg/mL
  Solubility 2 hours: > 2000 µg/mL
  pH of solution, 2 hours: 6.44
[1]; ES4: Water
  Solubility 0.5 hours: >2000 µg/mL
  Solubility 2 hours: > 2000 µg/mL
  pH of solution, 2 hours: 2.78
[1]; [8]
  Solubility 0.5 hours: >2000 µg/mL
  Solubility 2 hours: > 2000 µg/mL
  pH of solution, 2 hours: 5.37
[2]; 0% RH, DVS 25° C.
  Desorp. (%) Cycle 1: 0.00%
  Desorp. (%) Cycle 2: 0.00%
  Sorp. (%) Cycle 1: 0.00%
  Sorp. (%) Cycle 2: 0.00%
[2]; 10% RH, DVS 25° C.
  Desorp. (%) Cycle 1: 0.07%
  Desorp. (%) Cycle 2: 0.07%
  Sorp. (%) Cycle 1: 0.07%
  Sorp. (%) Cycle 2: 0.07%
[2]; 20% RH, DVS 25° C.
  Desorp. (%) Cycle 1: 0.15%
  Desorp. (%) Cycle 2: 0.15%
  Sorp. (%) Cycle 1: 0.14%
  Sorp. (%) Cycle 2: 0.14%
[2]; 30% RH, DVS 25° C.
  Desorp. (%) Cycle 1: 0.23%
  Desorp. (%) Cycle 2: 0.23%
  Sorp. (%) Cycle 1: 0.22%
  Sorp. (%) Cycle 2: 0.22%
[2]; 40% RH, DVS 25° C.
  Desorp. (%) Cycle 1: 0.30%
  Desorp. (%) Cycle 2: 0.32%
  Sorp. (%) Cycle 1: 0.29%
  Sorp. (%) Cycle 2: 0.30%
[2]; 40-0-95-0-40% RH
  XRPD after DVS test: No form change
[2]; 50% RH, DVS 25° C.
  Desorp. (%) Cycle 2: 0.41%
  Sorp. (%) Cycle 1: 0.39%
[2]; 60% RH, DVS 25° C.
  Desorp. (%) Cycle 2: 0.52%
  Sorp. (%) Cycle 1: 0.47%
[2]; 70% RH, DVS 25° C.
  Desorp. (%) Cycle 2: 0.67%
  Sorp. (%) Cycle 1: 0.59%
[2]; 80% RH, DVS 25° C.
  Desorp. (%) Cycle 2: 0.81%
  Sorp. (%) Cycle 1: 0.71%
[2]; 90% RH, DVS 25° C.
  Desorp. (%) Cycle 2: 0.97%
  Sorp. (%) Cycle 1: 0.92%
[2]; 95% RH, DVS 25° C.
  Desorp. (%) Cycle 2: 1.01%
  Sorp. (%) Cycle 1: 1.01%
[2]; DVS 25° C.
  Hygroscopicity: slightly hygroscopic
[2]; cycle 40-0-95-0-40% RH
  XRPD after DVS test: No form change
[2]; up to 95% RH, DVS 25° C.
  Water uptake: about 1.0%
[3]; 25° C./92% RH open, 40° C./75% RH open, 60° C. tight container, one week
  Stability after exposure to the three conditions: good physical stability
[3]; 40° C./75% RH in an open container, one week
  Degradation product increase: 1.6%
[3]; 60° C. in a tight container, one week
  Degradation product increase: 1.5%
[3]; [9]
  Bulk (XRPD): No form change
  Color: No change
  Purity, Bulk (HPLC): 98.7%
[3]; [10]
  Bulk (XRPD): No form change (One
  Color: No change
  Purity, Bulk (HPLC): 97.2%
[3]; [11]
  Bulk (XRPD): No form change (One
  Color: No change
  Purity, Bulk (HPLC): 97.3%
[3]; before storage
  Initial HPLC purity: 98.8%
[4]; PS1: IPA
  Crystal modification after 1 week equilibration (XRPD): Compound V Pattern 2
[4]; PS2: Heptanes
  Crystal modification after 1 week equilibration (XRPD): Compound III Pattern 2
[4]; PS3: Water
  Crystal modification after 1 week equilibration (XRPD): Compound III Pattern 3
[4]; PS4: ACN
  Crystal modification after 1 week equilibration (XRPD): Compound III Pattern 4
[4]; PS5: MEK
  Crystal modification after 1 week equilibration (XRPD): Compound III Pattern 5
[4]; PS7: IPA/heptanes (3/10, v/v)
  Crystal modification after 1 week equilibration (XRPD): Compound III Pattern 2
[4]; PS8: water/ACN (2.9/97.1, v/v)
  Crystal modification after 1 week equilibration (XRPD): Compound III Pattern 4
[4]; PS9: IPA/MTBE (1/3, v/v)
  Crystal modification after 1 week equilibration (XRPD): Compound III Pattern 6
[4]; PS10: EA/toluene (1/3, v/v)
  Crystal modification after 1 week equilibration (XRPD): Compound III Pattern 2
